According to patent US20160045531A1, “COMBINATION THERAPY FOR TREATING CANCER” (EPIZYME, INC., priority 2014, published 2016):

How the values were obtained:
[1] = system: SKM-1 (non-MLL-rearranged AML); assay: Combination proliferation study with Compound A2 (Examples 2/3), SKM-1; format: cell-based, human; details: non-rearranged SKM-1 cell line
Procedure: The HP-D300 digital dispenser (Tecan) was used to dispense compounds in a combinatorial matrix. […] Cell viability was measured via ATP content using CellTiter-Glo® (Promega).
Viability was determined using CellTiter-Glo® (Promega).

[2] = system: MOLM-13 cells; assay: Flow cytometric analysis of cell cycle and Annexin V, MOLM-13; format: cell-based, human
Procedure: (§1) On Day 0 MOLM-13 cells are seeded at 3,000 cells/mL. On Day 7 and Day 10 MOLM-13 cells are counted and reseeded at 50,000 cells/mL. […] On Day 10 They were redosed again. On Day 14 the experiment was terminated.
To evaluate the fraction of cells in each cell cycle, flow cytometric analysis was performed. FACS analysis for detection of cell death by apoptosis, and cell cycle was performed.
Samples were analyzed using the Guava EasyCyte Plus System (Millipore). Cells for cell cycle analysis were pelleted by centrifugation at 200×g for 5 minutes at 4° C., washed twice with ice cold PBS then fixed with 70% ice cold ethanol. All samples were analyzed together at end of experiment. Following fixation cells were washed with PBS and stained with the Guava cell cycle reagent (Millipore 4500-0220) for 30 minutes. Samples were analyzed using the Guava EasyCyte Plus System (Millipore).

[3] = system: MOLM-13 cells; assay: CD11b and CD14 expression by flow cytometry, MOLM-13; format: cell-based, human
Procedure: as §1
The cells were prepared by washing twice in PBS, followed by fixation in 4% formaldehyde for ten minutes at 37° C. After fixation cells were washed and blocked with blocking buffer for 10 minutes at room temperature. Cells were then incubated in presence of anti-CD14, anti-CD11b or anti-IgG antibody for 1 hour at room temperature while rotating. Cells were washed, re-suspended in PBS and 5,000 events were analyzed using ExpressPro software on the GuavaCyte Plus System.

[4] = system: H3K79me2; details: cited from earlier work
[5] = system: rat xenograft model of MLL-rearranged leukemia; details: cited from earlier work
[6] = system: acute leukemia lines bearing MLL translocations; details: sparing lines without MLL gene translocations; cited from earlier work
[7] = system: SKM-1 cells; assay: Proliferation assay and calculation of synergism (Example 5), SKM-1; details: non-MLL-rearranged leukemia cell line SKM-1
Source text: The acute myelogenous leukemia cell line MV4-11 (MLL-AF4) (CRL-9591) was obtained from American Type Culture Collection (ATCC), Manassas, Va. and both MOLM-13 (MLL-AF9) (ACC 554) and SKM-1 (ACC 547) cells were obtained from Leibniz Institute DSMZ-German Collection of Microorganisms and Cell Cultures, Braunschweig, Germany. MV4-11 cells were maintained in IMDM supplemented with 10% fetal bovine serum. MOLM-13 and SKM-1 cells were maintained in Roswell Park Memorial Institute medium (RPMI) supplemented with 10% fetal bovine serum. They were cultured in flasks or plates in a humidified 5% CO2 atmosphere.
Proliferation studies were performed using MOLM-13, MV4-11 and SKM-1 cell lines in vitro to evaluate the cancer cell killing effect of a combination of two agents together on cell growth. Initial proliferation studies were performed to determine the IC50 values of a given compound in each cell line. The cell counts were measured by ATP quantitation using the Promega Cell Titer Glo kit and luminescence values correspond to the amount of ATP in a given well.
These studies were performed to evaluate both the combinatorial effect of compounds on cell killing and the durability of the effect by washing out one of the agents.
Compounds evaluated for synergy in the co-treatment phase were tested in a range which was bracketed around the IC50's. The compounds were plated to a 96 well plate in a matrix format which includes increasing concentrations of each drug in the combination in a constant ratio, in addition to the effect of each compound alone in the study. […] Maximum and minimum inhibition (DMSO alone) controls were used in each plate to calculate fraction affected (Fa) of a test well. DMSO concentration was kept at 0.1% v/v. The drug combination analysis was performed utilizing the Chou-Talalay method. Synergy was determined using the software package Calcusyn by Biosoft. The combination index (CI) is the term used to describe the level of synergy or antagonism in a given test system. A combination index less than one indicates synergy, and a CI greater than one indicates antagonism.
The drug combination analysis was performed using the Chou-Talalay method. Graphs representing values of combination index (CI) versus Fractional effect (Fa) known as Fa-CI plots were generated and synergy was evaluated. Drug synergy was statistically defined by CI values less than 1, antagonism by CI>1 and additive effect by CI equal to 1.

EC50 ([2]; Homo sapiens, 168 h, MOLM-13, single agent, 7 days, Annexin-V staining, read-out: Midpoint value (EC50) of decrease in total content of viable cells): 0.364 ± 0.018 µM
SMILES: CC(C)N(C[C@H]1O[C@@H](n2cnc3c(N)ncnc32)[C@H](O)[C@@H]1O)[C@H]1C[C@@H](CCc2nc3cc(C(C)(C)C)ccc3[nH]2)C1 [Compound A2, (2R,3R,4S,5R)-2-(6-amino-9H-purin-9-yl)-5-((((1r,3S)-3-(2-(5-(tert-butyl)-1H-benzo[d]imidazol-2-yl)ethyl)cyclobutyl) (isopropyl)amino)methyl) tetrahydrofuran-3,4-diol]
Single agent antiproliferative effect in SKM-1 [1]: no effect alone
Apoptotic cells (Annexin-V staining), single agent ([2]; MOLM-13, after 7 days of treatment): concentration-dependent increase in apoptotic cells
Apoptosis induction over 14 day course, single agent ([2]; MOLM-13, 156 nM Compound A2 or 63 nM Ara-C): much more robust induction of apoptosis
Sub-G1 cell population, single agent ([2]; MOLM-13, 14 day treatment, 156 nM Compound A2 or 63 nM Ara-C): moderate, time-dependent increase in sub-G1 population
Differentiation markers CD11b and CD14, single agent [3]: time and concentration dependent up-regulation
Inhibition of intracellular DOT1L activity (H3K79 methylation) ([4]; across a spectrum of AML cell lines): concentration-dependent inhibition of H3K79 methylation
Time for H3K79me2 to return to pretreatment levels after the latency period ([4]; after the 3-day latency period): 4 days
Period without recovery of H3K79 methylation after wash out ([4]; after wash out of Compound A2): 3 days
Depletion of cellular levels of H3K79me2 ([4]; four days of treatment): > 80%
Tumor response in xenograft [5]: sustained tumor regressions
Cell killing in vitro [6]: promoted cell killing
Single agent antiproliferative activity in SKM-1 [7]: no single agent activity
